Our source for the GI-50, LC-50 and TGI values is US5410024A, “Human cancer inhibitory pentapeptide amides” (Arizona Board of Regents acting on behalf of Arizona State …, priority 1993, dated 1995).

Assay type in all cases: cell-based
In assay [1] the test system is A498. Kind of assay: NCI human tumor cell line screen, Renal A498. The following applies: Renal A498. An excerpt:
(§1) Current research in the control of cancer in the United States is coordinated by the National Cancer Institute (NCI). To determine whether a substance has anti-cancer properties, the NCI has established a systematic protocol. […] The protocol, and the established statistical means for analyzing the results obtained by the standardized testing are fully described in the literature. […] Both of these references are incorporated herein by this reference thereto.

Assay [2] has as its system NCI-H460. Kind of assay: NCI human tumor cell line screen, Lung-NSC NCI-H460. Particulars: Lung-NSC NCI-H460.
Text: as §1

For assay [3], the system named is OVCAR-3. Kind of assay: NCI human tumor cell line screen, Ovarian OVCAR-3. Particulars: Ovarian OVCAR-3.
Text: as §1

For assay [4], the system named is SK-MEL-5. Kind of assay: NCI human tumor cell line screen, Melanoma SK-MEL-5. The following applies: Melanoma SK-MEL-5.
Text: as §1

Assay [5] relates to SF-295. The experiment in a line: NCI human tumor cell line screen, CNS SF-295. The following applies: CNS SF-295.
Text: as §1

For assay [6], the system named is KM20L2. Kind of assay: NCI human tumor cell line screen, Colon KM20L2. The following applies: Colon KM20L2.
Text: as §1

In the case of “L-Dolavalyl-L-Valyl-N-Methyl-(S,S,R)-Dolaisoleucyl-(S,R,R)-Dolaproyl-L-Phenylalanineamide-N-(1-adamantane) [Compound 9j]”, the GI-50 in assay [1] turned out to be 0.000034 µg/mL; in assay [2] it was 0.000014 µg/mL; in assay [3], 0.000019 µg/mL; in assay [4], 0.000022 µg/mL; in assay [5] it was 0.000030 µg/mL; in assay [6], 0.000027 µg/mL. The LC-50 in assay [1], in assay [2], in assay [3], in assay [4], in assay [5] and in assay [6] was above 0.0001 µg/mL each time. The TGI in assay [1] is above 0.1 ng/mL; in assay [2] it was 0.057 ng/mL; in assay [3], 0.055 ng/mL; in assay [4], above 0.1 ng/mL; in assay [5], above 0.1 ng/mL; in assay [6] it was 0.072 ng/mL.

As for “L-Dolavalyl-L-Valyl-N-Methyl-(S,S,R)-Dolaisoleucyl-(S,R,R)-Dolaproyl-L-Phenylalanineamide-N-(2-thiazole) [Compound 9a]”, the GI-50 in assay [1] is 0.0000056 µg/mL; in assay [2] it was 0.0000018 µg/mL; in assay [3], 0.0000005 µg/mL; in assay [4], 0.0000014 µg/mL; in assay [5] it was 0.0000038 µg/mL; in assay [6], 0.0000020 µg/mL. For the same substance, the TGI in assay [1] was 0.09 ng/mL; in assay [2] it was 0.009 ng/mL; in assay [3], 0.0044 ng/mL; in assay [4], 0.08 ng/mL; in assay [5], above 0.1 ng/mL; in assay [6] it was 0.011 ng/mL. The LC-50 in assay [3] worked out at 0.000088 µg/mL.

As to “L-Dolavalyl-L-Valyl-N-Methyl-(S,S,R)-Dolaisoleucyl-(S,R,R)-Dolaproyl-L-Phenylalanineamide-N-(methenyl-2-pyridine) [Compound 9i]”, the GI-50 is 0.00059 µg/mL in assay [1]; 0.000051 µg/mL in assay [2]; 0.000056 µg/mL in assay [3]; 0.000029 µg/mL in assay [4]; 0.00036 µg/mL in assay [5]; 0.00033 µg/mL in assay [6]. In addition, the LC-50 in assay [1], in assay [2], in assay [3], in assay [4], in assay [5] and in assay [6] was above 0.01 µg/mL throughout. The TGI in assay [1] is above 10 ng/mL; in assay [2], 1 ng/mL; in assay [3], 2 ng/mL; in assay [4] it was above 10 ng/mL; in assay [5] it was above 10 ng/mL; in assay [6] it was above 10 ng/mL.

Regarding “L-Dolavalyl-L-Valyl-N-Methyl-(S,S,R)-Dolaisoleucyl-(S,R,R)-Dolaproyl-L-Phenylalanineamide-N-(methenyl-2-thiophene) [Compound 9h]”, the GI-50 in assay [1] is 0.000055 µg/mL; in assay [2], 0.0000089 µg/mL; in assay [3], below 0.000001 µg/mL; in assay [4], below 0.000001 µg/mL; in assay [5] it was 0.00014 µg/mL; in assay [6], 0.000049 µg/mL. In addition, the LC-50 in assay [1] is above 0.01 µg/mL; in assay [2], above 0.01 µg/mL; in assay [3], 0.0097 µg/mL; in assay [4], above 0.01 µg/mL; in assay [5] it was above 0.01 µg/mL; in assay [6] it was above 0.01 µg/mL. Further, the TGI is 6.9 ng/mL in assay [1]; 0.37 ng/mL in assay [2]; 0.28 ng/mL in assay [3]; above 10 ng/mL in assay [4]; above 10 ng/mL in assay [5]; 1.3 ng/mL in assay [6].

As a reminder, the TGI is the concentration giving total growth inhibition. Low readings indicate more potent growth arrest, high ones less potent growth arrest.
